Several values for one entry are separate records, joined by “and”; a condition that tells them apart may be missing. Identical values can stand only once. Entries after “also recorded” stand apart in the source; their conditions may differ. Like-named read-outs stand apart in the source and are kept apart here.
What was measured:
[1] = biological target: T1, human CB2R (Homo sapiens, UniProt P34972); test: competitive binding affinity assay, membrane homogenates of hCB2R CHO cells, radioligand [3H]WIN55212-2; conditions: hCB2R CHO membranes
T1 construct: expressed in transfected cells; host or cells: CHO cells (membrane homogenates)
Method: Target compounds 9–11, 15, LUZ5, and 17 were evaluated in a competitive binding affinity assay using hCB2R Chinese hamster ovary (CHO) cells and the agonistic high-affinity CB2R radioligand [^3H]WIN55212-2 (Figure S96).
(§1) The in vitro binding affinity assays were performed with membrane homogenates from Chinese hamster ovary (CHO) cells stably transfected with the human CB2R according to a previously published protocol.[95] The screening for CB1R binding affinity determination was performed with membrane homogenates from CHO cells stably transfected with the human CB1R as described previously.[96]

[2] = chemical stability tests by 1H and 11B{1H} NMR spectroscopy in aqueous DMSO-d6; format: physicochemical; conditions: for chemical stability in aqueous DMSO-d6 (NMR), in words / stability in aqeous DMSO-d6 (1H, 11B{1H}-NMR) / stability versus binding affinity assay time frame: aqueous DMSO-d6; for stability versus binding affinity assay time frame: assay time 90 min
Method: A high chemical and metabolic stability of the compounds is required for biological evaluation and application in vivo. The method of choice for evaluating the chemical stability was ^1H and ^11B{^1H} NMR spectroscopy, with the latter being particularly suitable for recognizing deboronation. Since the in vitro binding assays are performed in aqueous media, the stability tests should be performed under similar conditions. However, due to the high hydrophobicity of the carborane moieties, target compounds 9–11 and 15–17 were not soluble in aqueous solution without the addition of dimethyl sulfoxide (DMSO). Since a maximum of 1% DMSO can be used in the in vitro binding assay, stability measurements were performed in aqueous DMSO-d6 to see especially if deboronation occurs in the presence of water. Approximately 10 mg of each compound (9–11 and 15–17) was dissolved in the deuterated NMR solvent and monitored via NMR spectroscopy in time intervals of a few minutes (after the addition of the solvent to the respective solid compound) to at least 23 days for the o- (9 and 15) and m-carborane derivatives (10 and LUZ5) and beyond one year for the p-carborane analogues (11 and 17) (Figures S68–S79).
Stability tests were performed with ^1H and ^11B{^1H} NMR spectroscopy. Approximately 10 mg of each compound was dissolved in aqueous DMSO-d6 and measured directly thereafter and at increasing time intervals from a few minutes to a couple of days or beyond a year.
The stability of LUZ5 was additionally investigated under the conditions described above, but in the presence of larger amounts of H2O or D2O. For this, LUZ5 was dissolved in DMSO-d6 (0.5 mL) and either H2O (0.1 mL) or D2O (0.1 mL) was added.

[3] = biological target: CB2R; conditions: reference compound; read-out: KiCB2R; cited from earlier work
[4] = cited from earlier work
[5] = rat, in vivo; cited from earlier work
[6] = test system: mouse liver microsomes (MLMs); test: in vitro metabolism with mouse liver microsomes and NADPH, HPLC-UV-MS; format: in vitro ADME; conditions: NADPH, similar conditions
Method: Each of the compounds was incubated with mouse liver microsomes (MLMs) in phosphate-buffered saline (PBS) in the presence of nicotinamide adenine dinucleotide phosphate (NADPH) for 30 and 60 min at 37 °C, according to a literature protocol.[81],[82] After the addition of cold acetonitrile, the obtained supernatants were analyzed by HPLC-UV-MS (exemplified chromatogram and spectrum in Figures S91 and S92). […] In addition, negative control samples without NADPH or without NADPH and MLM were prepared and analyzed for each target compound.
For in vitro evaluation of metabolites, the following instruments were used: BioShake iQ (QUANTIFOIL Instruments, Jena, Germany), Centrifuge 5424 (Eppendorf, Hamburg, Germany), UltiMate 3000 UHPLC System (Thermo Scientific, Germering, Germany) including a DAD detector (DAD-3000RS) coupled to an MSQ Plus single quadrupole mass spectrometer (Thermo Scientific, Austin, TX). […] In brief, each of the test compounds (dissolved in DMSO, final concentration of 10 μM, final DMSO percentage of 1%) and MLMs (final protein concentration of 1 mg/mL) in PBS (pH 7.4) were preincubated in PBS (pH 7.4) for 5 min at 37 °C. Similarly preincubated NADPH (final concentration of 2 mM) was added to start the incubation. […] The supernatants were stored at 4 °C until they were measured by HPLC-UV-MS. […]

[7] = biological target: T2, human CB1R (Homo sapiens, UniProt P21554); test: CB1R binding affinity screening, membrane homogenates of CHO cells with human CB1R, radioligand [3H]SR141716A; conditions: human CB1R CHO membranes
T2 construct: expressed in transfected cells; host or cells: CHO cells (membrane homogenates)
Method: as §1

[8] = individual values behind the mean, read-out: KiCB2R individual values

T1 sequence (P34972 whole entry): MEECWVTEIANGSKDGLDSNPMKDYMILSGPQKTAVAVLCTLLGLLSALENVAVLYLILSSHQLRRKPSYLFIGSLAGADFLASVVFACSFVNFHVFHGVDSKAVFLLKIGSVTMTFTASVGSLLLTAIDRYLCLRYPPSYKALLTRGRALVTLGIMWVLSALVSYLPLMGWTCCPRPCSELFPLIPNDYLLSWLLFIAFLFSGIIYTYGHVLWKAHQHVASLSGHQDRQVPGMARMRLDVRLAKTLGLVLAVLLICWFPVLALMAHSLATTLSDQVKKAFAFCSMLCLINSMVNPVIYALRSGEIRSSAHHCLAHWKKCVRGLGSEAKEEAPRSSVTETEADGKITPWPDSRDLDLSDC
T2 sequence (P21554 whole entry): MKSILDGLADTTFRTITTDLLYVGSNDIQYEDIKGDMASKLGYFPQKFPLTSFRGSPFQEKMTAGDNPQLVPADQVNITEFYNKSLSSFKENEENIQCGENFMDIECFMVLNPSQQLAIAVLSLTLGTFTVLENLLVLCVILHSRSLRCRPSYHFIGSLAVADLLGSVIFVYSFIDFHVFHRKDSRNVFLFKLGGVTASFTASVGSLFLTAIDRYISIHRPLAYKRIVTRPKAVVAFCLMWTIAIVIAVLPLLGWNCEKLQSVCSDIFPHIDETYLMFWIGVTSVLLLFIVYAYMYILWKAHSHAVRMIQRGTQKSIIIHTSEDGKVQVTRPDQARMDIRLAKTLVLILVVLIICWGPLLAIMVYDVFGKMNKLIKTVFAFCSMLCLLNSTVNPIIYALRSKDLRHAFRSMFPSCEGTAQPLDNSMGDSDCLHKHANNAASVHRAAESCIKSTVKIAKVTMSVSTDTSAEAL

| Compound | Ki ([1]; mean, read-out: KiCB2R mean) | chemical stability in aqueous DMSO-d6 (NMR), in words [2] | stability in aqeous DMSO-d6 (1H, 11B{1H}-NMR) [2] | stability versus binding affinity assay time frame [2] | Ki [1, 8] | other results |
| --- | --- | --- | --- | --- | --- | --- |
| 1-(4-Fluorobutyl)-2-oxo-N-(1,2-dicarba-closo-dodecaboranyl)-1,2-dihydro-1,8-naphthyridine-3-carboxamide [Compound 9] | 40.8 nM | additional signals were visible already after 2 h | < 0.083 days | too low |  |  |
| 1-(4-Fluorobutyl)-2-oxo-N-(1,7-dicarba-closo-dodecaboranyl)-1,2-dihydro-1,8-naphthyridine-3-carboxamide [Compound 10] | 35.4 nM |  | < 8 days | stability beyond the binding affinity assay time frame | 43.8 nM and 26.9 nM |  |
| 1-(4-Fluorobutyl)-2-oxo-N-(1,7-dicarba-closo-dodecaboranyl)-1,2-dihydro-1,8-naphthyridine-3-carboxamide [Compound 11] | 3.9 nM | stable for more than one year; also recorded: good chemical stability | ? 491 d | stability beyond the binding affinity assay time frame | 2.77 nM and 5.01 nM |  |
| O=C(NC12CC3CC(CC(C3)C1)C2)c1cc2cccnc2n(CCCCF)c1=O [LU13] |  |  |  |  |  | Ki [3]: 0.6 nM |
| Cc1s/c(=N\C(=O)C2C(C)(C)C2(C)C)n(CCCC[18F])c1C [[^18F]3] |  |  |  |  |  | intact radioligand in brain ([4]; brain samples): 36%; intact radiotracer in plasma ([4]; mouse, in vivo): 7% |
| Cc1s/c(=N\C(=O)C2C(C)(C)C2(C)C)n(CCOCC[18F])c1C [[^18F]4] |  |  |  |  |  | intact radiotracer in plasma [5]: 25% |
| C[C@]12CC[C@H]3[C@@H](CCC4=CC(=O)CC[C@@]43C)[C@@H]1CC[C@@H]2O [testosterone] |  |  |  |  |  | conversion of positive control [6]: complete conversion |
| (Z)-N-[3-(4-Fluorobutyl)-4,5-dimethylthiazole-2(3H)-ylidene]-(1,2-dicarba-closo-dodecaboranyl)-carboxamide [Compound 15] | 3.3 nM | good chemical stability | < 3 days | stability beyond the binding affinity assay time frame | 3.28 nM and 3.26 nM |  |
| (Z)-N-[3-(4-Fluorobutyl)-4,5-dimethylthiazole-2(3H)-ylidene]-(1,7-dicarba-closo-dodecaboranyl)-carboxamide [LUZ5] | 0.8 nM |  | ? 23 d | stability beyond the binding affinity assay time frame |  | Ki [7]: > 10000 nM; stable in DMSO-d6 with increased amounts of D2O ([2]; D2O in DMSO-d6 1:5 (v/v), 11B{1H} NMR): at least 8 days; stable in DMSO-d6 with increased amounts of H2O ([2]; H2O in DMSO-d6 1:5 (v/v), 11B{1H} NMR): at least 19 days |
| (Z)-N-[3-(4-Fluorobutyl)-4,5-dimethylthiazole-2(3H)-ylidene]-(1,12-dicarba-closo-dodecaboranyl)-carboxamide [Compound 17] | 1.3 nM | stable for more than one year; also recorded: good chemical stability | ? 491 d | stability beyond the binding affinity assay time frame | 1.36 nM and 1.17 nM |  |

Reference: publication PMC10782483, “Development of the High-Affinity Carborane-Based Cannabinoid Receptor Type 2 PET Ligand [^18F]LUZ5-d8” (Journal of Medicinal Chemistry, 2023)
